From patent publication US11453666B2, “Autotaxin inhibitory compounds” (Cancer Research Technology Limited, priority 2015, dated 2022)

biological target: human recombinant ATX (Homo sapiens, UniProt Q13822); experiment: Autotaxin (ATX) activity Quanta Red assay; type: biochemical; conditions: Table 2: additional compounds tested for ATX activity (Quanta Red Assay); read-out: Activity
Method in brief: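 Recombinant human ATX reaction stopped after 2 h with Quanta Red stop solution; fluorescence read at […]. Controls with DMSO, with and without ATX; IC50 in duplicate.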

| IC50 [nM] | SMILES |
| --- | --- |
| 154 | COc1ccc(Cn2c(CCC(=O)NCCc3ccc(SC)cc3)nc3cccnc32)cc1 [Example 221, 3-[3-(4-Methoxy-benzyl)-3H-imidazo[4,5-b]pyridin-2-yl]-N-[2-(4-methylsulfanyl-phenyl)-ethyl]-propionamide] |
| 466 | COc1ccc(Cn2c(CCC(=O)NCCc3cccc(C)c3)nc3cccnc32)cc1 [Example 229, 3-[3-(4-Methoxy-benzyl)-3H-imidazo[4,5-b]pyridin-2-yl]-N-(2-m-tolyl-ethyl)-propionamide] |

same assay, conditions: human recombinant ATX 0.8 μg/mL, 2 hours at room temperature, IC50 determined in duplicate; read-out: Activity (ATX activity, Quanta Red assay; IC50)

| IC50 [nM] | SMILES |
| --- | --- |
| 957 | C[C@H](OC(=O)NCc1nc2cccnc2n1Cc1ccc(F)cc1)c1ccc(F)cc1 [Example 164, [3-(4-Fluoro-benzyl)-3H-imidazo[4,5-b]pyridin-2-ylmethyl]-carbamic acid (S)-1-(4-fluoro-phenyl)-ethyl ester] |
| 2 | C[C@H](NC(=O)CSc1nc2cccnc2n1Cc1ccc(OC(F)(F)F)cc1)c1ccc(F)cc1 [Example 145, N—[(S)-1-(4-fluoro-phenyl)-ethyl]-2-[3-(4-trifluoromethoxy-benzyl)-3H-imidazo[4,5-b]pyridin-2-ylsulfanyl]-acetamide] |

| SMILES | IC50 [nM] |
| --- | --- |
| C[C@H](NC(=O)CCc1nc2cccnc2n1Cc1ccc(C(F)(F)F)cc1)c1ccc(Cl)cc1 [Example 12, N-[(S)-1-(4-Chloro-phenyl)-ethyl]-3-[3-(4-trifluoromethyl-benzyl)-3H-imidazo[4,5-b]pyridin-2-yl]-propionamide] | 2 |

same assay, conditions: read-out: Activity (ATX activity, Quanta Red assay; IC50)

| SMILES | IC50 [nM] |
| --- | --- |
| O=C(CCc1nc2cccnc2n1Cc1ccc(OC(F)(F)F)cc1)N[C@@H](Cc1ccccc1)C(=O)O [Example 199, (S)-3-Phenyl-2-{3-[3-(4-trifluoromethoxy-benzyl)-3H-imidazo[4,5-b]pyridin-2-yl]-propionylamino}-propionic acid] | 71 |
| COc1ccc(Cn2c(CCC(=O)N(C)[C@@H](C)c3ccccc3)nc3cccnc32)cc1 [Example 104, 3-[3-(4-Methoxy-benzyl)-3H-imidazo[4,5-b]pyridin-2-yl]-N-methyl-N-((S)-1-phenyl-ethyl)-propionamide] | 69 |
| CCC[C@H](NC(=O)CCc1nc2ccncc2n1Cc1ccc(F)cc1)c1ccccc1 [Example 134, 3-[3-(4-Fluoro-benzyl)-3H-imidazo[4,5-c]pyridin-2-yl]-N-((S)-1-phenyl-butyl)-propionamide] | 133 |
| Cc1ccccc1CNC(=O)CCc1nc2cccnc2n1Cc1ccccc1 [Example 5, 3-(3-Benzyl-3H-imidazo[4,5-b]pyridin-2-yl)-N-(2-methyl-benzyl)-propionamide] | 854 |
| COc1ccc(Cn2c(CCC(=O)NC(C)C)nc3cccnc32)cc1 [Example 113, N-Isopropyl-3-[3-(4-methoxy-benzyl)-3H-imidazo[4,5-b]pyridin-2-yl]-propionamide] | 1500 |
| COc1ccc(CCNC(=O)CCc2nc3cccnc3n2Cc2ccc(OC)cc2)cc1 [Example 116, 3-[3-(4-Methoxy-benzyl)-3H-imidazo[4,5-b]pyridin-2-yl]-N-[2-(4-methoxy-phenyl)-ethyl]-propionamide] | 778 |
| C[C@H](NC(=O)CCc1cc2cc(F)cnc2n1Cc1ccc(Cl)cc1)c1ccc(F)cc1 [Example 141, 3-[1-(4-Chloro-benzyl)-5-fluoro-1H-pyrrolo[2,3-b]byridin-2-yl]-N-[(S)-1-(4-fluoro-phenyl)-ethyl]-propionamide] | 14 |
| COc1ccc(CNC(=O)CCc2nc3cc(C)cnc3n2Cc2ccc(OC(F)(F)F)cc2)cc1F [Example 52, N-(3-Fluoro-4-methoxy-benzyl)-3-[6-methyl-3-(4-trifluoromethoxy-benzyl)-3H-imidazo[4,5-b]pyridin-2-yl]-propionamide] | 29 |
| CC[C@H](NC(=O)CCc1nc2cccnc2n1Cc1ccc(OC)cc1)c1ccccc1 [Example 93, 3-[3-(4-Methoxy-benzyl)-3H-imidazo[4,5-b]pyridin-2-yl]-N-((S)-1-phenyl-propyl)-propionamide] | 15 |
| COc1ccc(CNC(=O)CCc2nc3cc(F)cnc3n2Cc2ccccc2OC)cc1 [Example 101, 3-[6-Fluoro-3-(2-methoxy-benzyl)-3H-imidazo[4,5-b]pyridin-2-yl]-N-(4-methoxy-benzyl)-propionamide] | 55 |
| O=C(CCc1nc2cccnc2n1Cc1ccc(F)c(F)c1)NC(CO)c1ccc(OC(F)(F)F)cc1 (stereo not shown) [Example 39, 3-[3-(3,4-Difluoro-benzyl)-3H-imidazo[4,5-b]pyridin-2-yl]-N-[2-hydroxy-1-(4-trifluoromethoxy-phenyl)-ethyl]-propionamide] | 7 |
| CC(C)(C)OC(=O)N1CCC[C@@H](CNC(=O)CCc2nc3cccnc3n2Cc2ccc(OC(F)(F)F)cc2)C1 [Example 54, (S)-3-({3-[3-(4-Trifluoromethoxy-benzyl)-3H-imidazo[4,5-b]pyridin-2-yl]-propionylamino}-methyl)-piperidine-1-carboxylic acid tert-butyl ester] | 40 |
| O=C(CCc1nc2cccnc2n1Cc1ccc(OC(F)(F)F)cc1)NCC1CCCCC1 [Example 42, N-Cyclohexylmethyl-3-[3-(4-trifluoromethoxy-benzyl)-3H-imidazo[4,5-b]pyridin-2-yl]-propionamide] | 11 |
| CC(C)(NC(=O)CCc1nc2ccncc2n1Cc1ccc(F)cc1)c1ccccc1 [Example 136, 3-[3-(4-Fluoro-benzyl)-3H-imidazo[4,5-c]pyridin-2-yl]-N-(1-methyl-1-phenyl-ethyl)-propionamide] | 115 |
| C[C@H](NC(=O)CCc1nc2cccnc2n1Cc1ccc(OCc2ccccc2)cc1)c1ccc(Cl)cc1 [Example 76, 3-[3-(4-Benzyloxy-benzyl)-3H-imidazo[4,5-b]pyridin-2-yl]-N-[(S)-1-(4-chloro-phenyl)-ethyl]-propionamide] | 500 |

More lines, now with the values ahead:

| IC50 [nM] | SMILES |
| --- | --- |
| 3 | O=C(CCc1nc2cccnc2n1Cc1ccc(OC(F)(F)F)cc1)NC(CO)c1ccc(OC(F)(F)F)cc1 (stereo not shown) [Example 20, N-[2-Hydroxy-1-(4-trifluoromethoxy-phenyl)-ethyl]-3-[3-(4-trifluoromethoxy-benzyl)-3H-imidazo[4,5-b]pyridin-2-yl]-propionamide] |
| 5 | C[C@H](NC(=O)CCc1nc2cccnc2n1Cc1ccc(F)c(F)c1)c1ccc(N2CCNC(C(F)(F)F)C2)cc1 (stereo partly drawn) [Example 179, 3-[3-(3,4-Difluoro-benzyl)-3H-imidazo[4,5-b]pyridin-2-yl]-N-{(S)-1-[4-(3-trifluoromethyl-piperazin-1-yl)-phenyl]-ethyl}-propionamide] |
| 16 | Cc1cnc2c(c1)nc(CCC(=O)N[C@@H](C)c1ccc(N[C@H]3CCNC3)cc1)n2Cc1ccc(OC(F)(F)F)cc1 [Example 189, 3-[6-Methyl-3-(4-trifluoromethoxy-benzyl)-3H-imidazo[4,5-b]pyridin-2-yl]-N-{(S)-1-[4-((S)-pyrrolidin-3-ylamino)-phenyl]-ethyl}-propionamide] |
| 5 | O=C(CCc1nc2cccnc2n1Cc1ccc(OC(F)(F)F)cc1)NCc1ccc(F)cc1 [Example 30, N-(4-Fluoro-benzyl)-3-[3-(4-trifluoromethoxy-benzyl)-3H-imidazo[4,5-b]pyridin-2-yl]-propionamide] |
| 6 | C[C@H](NC(=O)CCc1nc2cccnc2n1Cc1ccc(F)cc1)c1ccc(N2CCCC2)cc1 [Example 180, 3-[3-(4-Fluoro-benzyl)-3H-imidazo[4,5-b]pyridin-2-yl]-N-[(S)-1-(4-pyrrolidin-1-yl-phenyl)-ethyl]-propionamide] |
| 471 | O=C(CCc1nc2cccnc2n1Cc1ccc(OC(F)(F)F)cc1)N[C@@H](Cc1ccc(O)cc1)C(=O)O [Example 200, (S)-3-(4-Hydroxy-phenyl)-2-{3-[3-(4-trifluoromethoxy-benzyl)-3H-imidazo[4,5-b]pyridin-2-yl]-propionylamino}-propionic acid] |
| 2 | C[C@H](NC(=O)CSc1nc2cccnc2n1Cc1ccc(OC(F)(F)F)cc1)c1ccc(Cl)cc1 [Example 144, N-[(S)-1-(4-Chloro-phenyl)-ethyl]-2-[3-(4-trifluoromethoxy-benzyl)-3H-imidazo[4,5-b]pyridin-2-ylsulfanyl]-acetamide] |
| 2 | CC[C@H]1CN(c2ccc([C@H](C)NC(=O)CCc3nc4cccnc4n3Cc3ccc(OC(F)(F)F)cc3)cc2)CCN1 [Example 172, N-{(S)-1-[4-((S)-3-Ethyl-piperazin-1-yl)-phenyl]-ethyl}-3-[3-(4-trifluoromethoxy-benzyl)-3H-imidazo[4,5-b]pyridin-2-yl]-propionamide] |
| 3 | C[C@H](NC(=O)CCc1nc2cccnc2n1Cc1ccc(OC(F)(F)F)cc1)c1ccc(N2CCN[C@@H](C)C2)cc1 [Example 176, N-{(S)-1-[4-((S)-3-Methyl-piperazin-1-yl)-phenyl]-ethyl}-3-[3-(4-trifluoromethoxy-benzyl)-3H-imidazo[4,5-b]pyridin-2-yl]-propionamide] |
| 7 | Cc1cnc2c(c1)nc(CCC(=O)N[C@@H](C)c1ccc(Cl)cc1)n2Cc1ccc(OC(F)(F)F)cc1 [Example 211, N—[(S)-1-(4-chloro-phenyl)-ethyl]-3-[6-methyl-3-(4-trifluoromethoxy-benzyl)-3H-imidazo[4,5-b]pyridin-2-yl]-propionamide] |
| 13 | C[C@H](NC(=O)CCc1nc2cccnc2n1Cc1ccc(F)cc1)c1ccc(N2CCCCC2)cc1 [Example 186, 3-[3-(4-Fluoro-benzyl)-3H-imidazo[4,5-b]pyridin-2-yl]-N-[(S)-1-(4-piperidin-1-yl-phenyl)-ethyl]-propionamide] |
